Measured values published in patent publication US11351163B2, “Compositions and methods of treating cancer” (BRISTOL-MYERS SQUIBB COMPANY, priority 2017, dated 2022).

Legend:
[1] = Clinical trial of Example 10: safety (TRAEs) and end of treatment disposition; assay type: in vivo
From the text: Primary Outcome Measures: • Safety and tolerability of a compound of Formula I as measured by a composite of the incidence of adverse events (AEs), serious adverse events (SAEs), AEs leading to discontinuation, deaths, and clinical laboratory test abnormalities. The time frame is 100 days after the last dose of study therapy. • Safety of a compound of Formula I plus nivolumab as measured by a composite of the incidence of adverse events (AEs), serious adverse events (SAEs), AEs leading to discontinuation, deaths, and clinical laboratory test abnormalities. […] The time frame is approximately 3 years. • Anti-tumor activity of a compound of Formula I administered in combination with nivolumab as measured by the duration of response (DOR) as measured by CT scan. The time frame is approximately 3 years. • Anti-tumor activity of a compound of Formula I administered in combination with nivolumab as measured by progression-free survival rates (PFSRs) as measured by CT scan. The time frame is approximately 3 years.
1. Combination Therapy (Dose Escalation).
2. Combination Therapy (Dose Expansion). […] Three patients received the compound of Formula I alone. IDO1 inhibitor therapy is not permitted. Prior exposure to immune checkpoint inhibitors or therapy targeting T-cell costimulation requires a washout period of >4 weeks.

kynurenine = assay: Kynurenine in paired tumor samples and serum of patients (FIG. 1A, 1B); assay type: in vivo, human
Method: FIG. 1A illustrates intratumoral kynurenine concentrations at 100 mg, 200 mg or 400 mg of the compound of Formula (I).
FIG. 1B illustrates percent serum kynurenine reduction at 20 mg, 50 mg, 100 mg, 200 mg or 400 mg of the compound of Formula (I).
Dark bars represent a pretreatment kynurenine condition and light bars represent an on-treatment kynurenine (C1D15) condition. Asterisks (*) denotes samples below the lower limit of quantitation.

[2] = Clinical trial of Example 2: safety and tolerability (DLTs, TRAEs), dose escalation and expansion; assay type: in vivo
From the text: Purpose: The purpose of the study is to, among other things, determine safety and effectiveness of a compound of Formula I (or salt thereof) when combined with nivolumab and in combination with both nivolumab and ipilimumab in patients with cancers that are advanced or have spread. Pharmacokinetics and pharmacodynamics (including immunomodulatory assays) of a compound of Formula I when combined with nivolumab and in combination with nivolumab and ipilimumab in this patient population will also be assessed.
Primary Outcome Measures: • Safety and tolerability of a compound of Formula I as measured by a composite of the incidence of adverse events (AEs), serious adverse events (SAEs), AEs leading to discontinuation, deaths, and clinical laboratory test abnormalities. The time frame is 100 days after the last dose of study therapy. • Safety of a compound of Formula I plus nivolumab as measured by a composite of the incidence of adverse events (AEs), serious adverse events (SAEs), AEs leading to discontinuation, deaths, and clinical laboratory test abnormalities. The time frame is 100 days after the last dose of study therapy. • Safety of a compound of Formula I plus both nivolumab and ipilimumab as measured by incidence of adverse events (AEs), serious adverse events (SAEs), AEs leading to discontinuation, deaths, and clinical laboratory test abnormalities. The time frame is 100 days after the last dose of study therapy. • Anti-tumor activity of a compound of Formula I administered in combination with nivolumab as measured by the best overall response (BOR) as measured by CT scan. The time frame is approximately 3 years. • Anti-tumor activity of a compound of Formula I administered in combination with nivolumab as measured by the duration of response (DOR) as measured by CT scan. The time frame is approximately 3 years. • Anti-tumor activity of a compound of Formula I administered in combination with nivolumab as measured by progression-free survival rates (PFSRs) as measured by CT scan. The time frame is approximately 3 years. • Anti-tumor activity of a compound of Formula I administered in combination with both nivolumab and ipilimumab as measured by the best overall response (BOR) as measured by CT scan. The time frame is approximately 3 years. • Anti-tumor activity of a compound of Formula I administered in combination with both nivolumab and ipilimumab as measured by the duration of response (DOR) as measured by CT scan. The time frame is approximately 3 years. • Anti-tumor activity of a compound of Formula I administered in combination with both nivolumab and ipilimumab as measured by progression-free survival rates (PFSRs) as measured by CT scan. The time frame is approximately 3 years.
1. Combination Therapy (Dose Escalation). Participants with advanced cancers received a compound of Formula I orally (PO), daily (QD) at a dose of 25 mg, 50 mg, 100 mg or 200 mg for all advanced cancers over a 2 week lead-in period. Participants were then also administered nivolumab intravenously at a dose of 240 mg once every two weeks.
2. Combination Therapy (Dose Expansion). A total of 219 participants with select previously treated advanced malignancies received a compound of Formula I at a dose of 100 or 200 mg orally once daily plus nivolumab at a dose of 240 mg intravenously once every two weeks (Q2W) or at a dose of 480 mg intravenously once every four weeks (Q4W). Advanced malignancies included cervical cancer (21 patients), diffuse large B-cell lymphoma (DLBCL) (4 patients), non-small cell lung cancer (NSCLC) (7 patients), renal cell carcinoma (RCC) (0 patients); squamous cell carcinoma of the head and neck (SCCHN) (16 patients), bladder cancer (18 patients), pancreatic cancer (18 patients), melanoma (21 patients), and ASST, a mixed tumor type cohort consisting of sarcoma, endometrial and breast cancer (19 patients). […]

[3] = patients with advanced bladder cancer

C[C@@H](C(=O)Nc1ccc(Cl)cc1)[C@H]1CC[C@@H](c2ccnc3ccc(F)cc32)CC1 [compound of Formula I, (R)-N-(4-chlorophenyl)-2-(cis-4-(6-fluoroquinolin-4-yl)cyclohexyl)propanamide]
tolerability of 100 mg ([1]; 100 mg vs the 200-mg dose, with nivolumab): improved tolerability vs the 200-mg dose | tolerability [1, 3]: well tolerated | treatment-related deaths [1, 3]: No treatment-related deaths occurred | reduction in serum kynurenine levels (kynurenine; 100 mg once daily, FIG. 1B): ~60% | intratumoral kynurenine (kynurenine; 39 paired pre- vs on-treatment (C1D15) tumor samples across various tumor types, FIG. 1A): reduced across all doses | # of DLTs/# DLT evaluable ([2]; 25 mg, dose escalation): 0/7 | # of DLTs/# DLT evaluable ([2]; 50 mg, dose escalation): 0/8 | # of DLTs/# DLT evaluable ([2]; 100 mg, dose escalation): 1/9 | # of DLTs/# DLT evaluable ([2]; 200 mg, dose escalation): 3/12 | # of DLTs/# DLT evaluable ([2]; 400 mg, dose escalation): 2/4 | DLTs ([2]; 400 mg, dose escalation): grade 3 AST/ALT; grade 2 anemia, fatigue | Maximum tolerated dose ([2]; during escalation): 200 mg
